This assay has as its system CEM cells HIV-1 protection, formazan growth assay. The assay can be described thus: NCI AIDS Antiviral Assay. Particulars: for IC50: measured here: growth of uninfected CEM cells. The gist of the method:
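Protection of CEM cells against HIV-1 was scored from cell growth (soluble formazan) across five concentrations, with parallel uninfected cells. Lack of protection may reflect toxicity.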

Data on 72 compounds can be found in PubChem BioAssay AID179 (DTP/NCI, 2004).

SMILES strings stand for the structures. “And” between values parts separate entries of the source, which are not always exact repeats. Equal entries are not always repeated. The source made the active and inactive calls.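 The calls were made as follows: active = compounds giving half or more protection of infected cells from virus-caused growth loss, again on retest; inactive = the rest.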 Bounds are passed on as bounds.

As for `CCOC(=O)C1(Br)CCN(S(=O)(=O)c2ccc(C)cc2)c2ccccc2C1=O` (centres undefined), the EC50 was over 200 µM and the half-inhibitory concentration (IC50) is 1.51 µM.

On to `Nc1ccc(S2(c3ccc(N)cc3)C=C(c3ccccc3)C(c3ccccc3)=C2)cc1`, for which the EC50 is over 200 µM and the concentration for half-maximal inhibition (IC50) was over 200 µM.

For the compound `C(=NC12CC3CC(CC(C3)C1)C2)C1CCCCC1`, the EC50 was over 200 µM and the 50% inhibitory concentration (IC50) was over 200 µM.

For `CCOC(=O)C1(C(=O)OCC)CC(=O)[C@@]2(C1)OCC[C@H]1OC(=O)C[C@H]12`, the EC50 was over 200 µM and the IC50 was over 200 µM.

As for `CC(=O)[CH-]C(C)=O.CC(=O)[CH-]C(C)=O.[CH2-]CCCCCCC.[CH2-]CCCCCCC.[Sn+4]`, the EC50 was over 47.9 µM and the half-maximal inhibitory concentration (IC50) was over 47.9 µM.

Regarding `CN(C(=O)C1=CCC2(CC1)OCCO2)c1ccccc1OS(=O)(=O)C(F)(F)F`, the EC50 was over 200 µM and the IC50 is over 200 µM.

Take `CC(=O)Nc1ccc(/C=C2\N=C(c3ccccc3)OC2=O)cc1`: the EC50 is over 12.3 µM and the IC50 was over 12.3 µM.

For the compound `COC1/C=C/OC2(C)Oc3c(C)c(O)c4c(O)c(c(/C=N/N(C)c5nc6c(N)ncnc6n5C5OC(CO)C(O)C5O)c(O)c4c3C2=O)NC(=O)C(C)=C/C=C/C(C)C(O)C(C)C(O)C(C)C(OC(C)=O)C1C` (centres undefined), the EC50 was over 200 µM and the IC50 turned out to be 112 µM.

For the compound `Cc1ccc(S(=O)(=O)OCCOS(=O)(=O)c2ccc(C)cc2)cc1`, the EC50 is over 36.3 µM and the half-maximal inhibitory concentration (IC50) was over 36.3 µM.

Take `CC(=O)C1CC(C)=CCC12C(=O)Nc1ccccc12` (centres undefined): the EC50 was over 195 µM and the half-inhibitory concentration (IC50) was over 195 µM.

For the compound `CCc1cc(C(=O)OC)cn1C(=N)c1ccc(Cl)cc1`, the EC50 is over 851 µM and the IC50 was over 851 µM.

With `CC(C)c1nc2cc(C(F)(F)F)ccc2[nH]c1=O`, the EC50 was over 200 µM and the concentration for half-maximal inhibition (IC50) was 120 µM.

As for `C=CC(=O)c1ccc2c(c1)OCCOCCOCCOCCOCCO2`, the EC50 was over 676 µM and the half-maximal inhibitory concentration (IC50) worked out at 7.08 µM.

With `COc1ccc(/C=C(/C#N)C(N)=O)c(OC)c1`, the concentration giving a half-maximal response (EC50) was over 200 µM and the concentration for half-maximal inhibition (IC50) turned out to be 60.3 µM.

In the case of `CC1=CCC(C(C)(C)NC(=O)c2ccccc2)C/C1=N/O` (centres undefined), the EC50 is over 91.2 µM and the IC50 is over 91.2 µM.

In the case of `CCc1cccc(C(C)C)c1NC(=O)CC1Sc2ccccc2NC1=O` (centres undefined), the EC50 is over 97.7 µM and the concentration for half-maximal inhibition (IC50) stood at 52.5 µM.

Take `Cc1cc(C)nc(NS(=O)(=O)c2ccc(Nc3c4ccc(Cl)cc4nc4c(C(=O)Nc5ccc(S(N)(=O)=O)cc5)cccc34)cc2)n1`: the EC50 was over 52.5 µM and the IC50 turned out to be 42.7 µM.

Consider `COC(=O)[C@H](CCSC)NC(=O)N[C@H](C)c1ccccc1`, for which the EC50 is over 200 µM and the IC50 is over 200 µM.

In the case of `Nc1nnc(N)n1-n1c(N)nnc1N`, the EC50 was over 200 µM and the IC50 was 166 µM.

With `Nc1ncnc2c1ncn2C1CC(OCc2ccccc2[N+](=O)[O-])C(CO)O1` (centres undefined), the EC50 was over 50.1 µM and the IC50 came to 36.3 µM.

For `CCCCCCCCCCCCCCCC(=O)ON1C(=S)NC(C)(c2ccccc2)C1=S` (centres undefined), the EC50 is over 200 µM and the IC50 was 77.6 µM.

For the compound `C=CC12CCC(CC1)n1c(=O)n(C)c(=O)n12`, the EC50 was over 200 µM and the concentration for half-maximal inhibition (IC50) is over 200 µM.

On to `COc1ccc(C(=O)CC(c2ccc3c(c2)OCO3)c2c(O)c3ccccc3oc2=O)cc1OC` (centres undefined), for which the EC50 is over 200 µM and the concentration for half-maximal inhibition (IC50) stood at 89.1 µM.

Take `Cc1[nH]n(-c2nc(-c3ccccc3)cc(=O)[nH]2)c(=O)c1CCO`: the EC50 was over 200 µM and the IC50 is over 200 µM.

As to `C=CC(=O)NC(O)(C(=O)OCC)C(F)(F)F` (centres undefined), the EC50 was over 200 µM and the IC50 was over 200 µM.

Regarding `Cn1cc(NC(=O)[C@H]2CCC(N)=N2)cc1C(=O)NCCC(=N)N`, the result was inactive.

Turning to `CCCCCCCCCCCCC1C(=O)NCCNCCCNCCNC1=O`, the EC50 is over 200 µM and the IC50 worked out at 10 µM.

In the case of `CCCC(C(=O)OCC(C)N1CCCC1(C)C)C1CCCC1` (centres undefined), the outcome was inactive.

Regarding `Cc1cccc2c(=O)c3c(O)cc(O)cc3[nH]c12`, the EC50 was over 200 µM and the IC50 stood at 14.5 µM.

As to `CC(C)CCC[C@@H](C)C1CCC2C3CCC4C[C@@H](CCC=C(c5cc(F)c(O)c(C(=O)O)c5)c5cc(F)c(O)c(C(=O)O)c5)CC[C@]4(C)C3CC[C@@]21C` (some centres undefined), the EC50 is 21.9 µM and the concentration for half-maximal inhibition (IC50) is over 200 µM.

Consider `O=c1c(O)cccc2cc(O)c(O)c(O)c12`, for which the EC50 was over 427 µM and the IC50 is 23.4 µM.

As for `Nc1nc(N)c(CCCCc2ccccc2)c(/C=C/c2ccc([N+](=O)[O-])cc2)n1`, the outcome was inactive.

`O=C1OC(CN2CCN(c3ccccc3)CC2)CN1C(=S)Nc1ccccc1` (centres undefined): the EC50 was over 200 µM and the IC50 worked out at 115 µM.

As for `O=C1NC(=Nc2ccccc2)C(=Nc2ccccc2)N1c1ccccc1`, the EC50 was over 200 µM and the half-inhibitory concentration (IC50) came to 14.8 µM.

Turning to `COc1ccc(N/N=C(\CCN(C)C)c2ccccc2)cc1`, the result was inactive.

On to `N#Cc1c2ccc([N+](=O)[O-])cc2c(=O)n2c1sc1ccccc12`, for which the EC50 is over 200 µM and the IC50 amounted to 10.7 µM.

For `CCN(CC)CC(=O)Nc1ccc(Cc2ccc(NC(=O)CN(CC)CC)cc2)cc1`, the EC50 is over 200 µM and the half-inhibitory concentration (IC50) stood at 16.2 µM.

Turning to `COc1ccc(C(=O)Nc2cc(C(=CCC[C@H]3CC[C@@]4(C)[C@@H](CC[C@@H]5[C@@H]4CC[C@]4(C)[C@@H](C(C)CCCC(C)C)CC[C@@H]54)C3)c3cc(NC(=O)c4ccc(OC)c(C(=O)O)c4)c(OC)c(C(=O)O)c3)cc(C(=O)O)c2OC)cc1C(=O)O` (some centres undefined), the EC50 is 36.3 µM and the IC50 was found to be 49 µM.

`Nc1ccn(C2OC(COP(=O)(O)O)C(O)OC2O)c(=O)n1` (centres undefined): the outcome was inactive.

As to `COC(=O)N1CCC(Sc2ccccc2)C2(CCSc3ccccc3)CCC=C12` (centres undefined), the EC50 was over 12.3 µM and the concentration for half-maximal inhibition (IC50) was over 12.3 µM.

With `C[n+]1c2ccccc2c(CNC(CCC(N)=O)C(=O)O)c2ccccc21` (centres undefined), the outcome was inactive.

As to `CCOC(=O)C1=NN(c2ccccc2)C(=O)/C1=C\N1C(=O)CC(=O)NC1=S`, the EC50 is over 200 µM and the half-inhibitory concentration (IC50) was determined as 195 µM.

Consider `C/C(=N/NC(=S)N(C)C)c1ccccc1O`, for which the EC50 was over 200 µM and the half-inhibitory concentration (IC50) is 11.7 µM.

With `CC1=C(C#N)C2C(=C(N)Oc3ccccc32)C(N)=N1` (centres undefined), the EC50 is over 200 µM and the half-inhibitory concentration (IC50) stood at 27.5 µM.

In the case of `Clc1ccc(C(c2ccc(Cl)cc2)c2cncnc2)cc1`, the outcome was inactive.

Take `S=C1c2cc(Cl)ccc2NC(=NC2CCCC2)C2CSCN12` (centres undefined): the EC50 is over 200 µM and the IC50 was determined as 33.9 µM.

Regarding `CC1(c2ccc(Cl)cc2)C2C(=O)NC(=O)C1C(=O)NC2=O` (centres undefined), the EC50 was over 813 µM and the 50% inhibitory concentration (IC50) was found to be 490 µM.

With `O=C1C(c2[nH]c3cc4c(cc3c2O)OCO4)=Nc2cc3c(cc21)OCO3`, the EC50 was over 100 µM and the half-inhibitory concentration (IC50) worked out at 14.8 µM.

Take `Cc1c(/C=N/NC(=S)N2CCCCC2)c(=O)n(-c2ccccc2)n1C`: the EC50 is over 200 µM and the 50% inhibitory concentration (IC50) came to 28.8 µM.

On to `O=C1Nc2ccc(Cl)cc2C(=O)N2CCC[C@@H]12`, for which the EC50 was over 200 µM and the IC50 was over 200 µM.

Take `C1=CC2C(c3cn(-c4ccccc4)nc31)C1C2C2C=CC3C(C=C2)C31` (centres undefined): the EC50 is over 3.24 µM and the half-maximal inhibitory concentration (IC50) is over 3.24 µM.

In the case of `Cc1ccc(C)c(NC(=O)CCc2nc(=S)[nH][nH]2)c1`, the outcome was inactive.

Turning to `O=c1c(-c2ccc3c(c2)OCO3)coc2cc(O)ccc12`, the EC50 was over 200 µM and the IC50 is over 200 µM.

With `COc1cc2nncc(SC)c2cc1OC`, the EC50 is over 91.2 µM and the 50% inhibitory concentration (IC50) was 72.4 µM.

Take `CC1(C)N=[N+]([O-])C1(C)C`: the EC50 was over 200 µM and the IC50 was over 200 µM.

`Nc1ccnc(N)c1N=O`: the EC50 was over 200 µM and the half-inhibitory concentration (IC50) stood at 27.5 µM.

Consider `CCNc1nc(NC(C)C)nc(-c2ccncc2)n1`, for which the EC50 is over 200 µM and the IC50 is 138 µM.

Regarding `N/C(=N/N=C/c1cccc([N+](=O)[O-])c1)NO`, the result was inactive.

As for `Cc1nc2ccccc2c(=O)n1Nc1ccc(C(=O)O)cc1`, the outcome was inactive.

Consider `CC1=NN2C(c3ccc(Cl)cc3)=CSC2=NC(C)(C)C1`, for which the EC50 was over 162 µM and the IC50 turned out to be 93.3 µM.

As to `CC(=O)C(N=Nc1nc2ccc(Cl)cc2[nH]1)C(C)=O`, the EC50 is over 200 µM and the half-inhibitory concentration (IC50) came to 28.8 µM.

As for `CN(Cc1cnc2nc(N)nc(N)c2n1)c1ccc(C(=O)N[C@@H](CCC(=O)O)C(=O)O)cc1`, the EC50 is over 1.51 µM and the IC50 was 0.00372 µM.

As for `COC(=O)c1c(C)cccc1CC1Cc2c(C)cccc2C1=O` (centres undefined), the EC50 was over 200 µM and the half-maximal inhibitory concentration (IC50) was determined as 41.7 µM.

Turning to `CCOC(=O)N/N=C(/N)c1cccc(Br)c1`, the EC50 is over 200 µM and the half-inhibitory concentration (IC50) was over 200 µM.

Regarding `O=C(C[P+](c1ccccc1)(c1ccccc1)c1ccccc1)c1ccccc1`, the EC50 was over 200 µM; the IC50 was 32.4 µM and 31.6 µM and 37.2 µM.

Regarding `Cc1cc(NS(=O)(=O)c2ccc(NC(=O)c3cccc4c(Nc5ccc(S(=O)(=O)Nc6cc(C)on6)cc5)c5ccccc5nc34)cc2)no1`, the EC50 is over 36.3 µM and the concentration for half-maximal inhibition (IC50) is over 36.3 µM.

With `O=C(Nc1ccccc1)Nc1ccccn1`, the EC50 was 166 µM and the concentration for half-maximal inhibition (IC50) is over 200 µM.

`CCCCOC(=O)OC1CCC2(C)CC3C=CC2(OO3)C1(C)C` (centres undefined): the EC50 is over 20 µM and the IC50 was found to be 4.27 µM.

With `C=C1CC[C@]2(C)C3CC[C@]4(C)C(C(C)CCC(=O)O)CCC4[C@@H]3CC[C@@H]2C1` (some centres undefined), the EC50 is over 5.13 µM and the IC50 was over 5.13 µM.

With `O=C1c2ccccc2Sc2ccccc2N1CCCCCN1CCN(c2ccc(F)cc2)CC1`, the EC50 was over 200 µM and the IC50 is 8.91 µM.

Turning to `O=C(Cn1nc(Br)c(Br)c1Br)c1ccccc1`, the EC50 is over 200 µM and the concentration for half-maximal inhibition (IC50) was determined as 19.5 µM.

Regarding `O=c1c2cccnc2[nH]c2ccc3scnc3c12`, the EC50 is over 200 µM and the half-maximal inhibitory concentration (IC50) is over 200 µM.

Broadly, the EC50 is the midpoint of the concentration-response curve. One may read the IC50 as the concentration at which inhibition is half-maximal. A higher IC50 goes with a need for much substance.
